The values below come from patent US11136301B2, “Broad spectrum antiviral compounds and uses thereof” (The Regents Of The University Of California, priority 2015, dated 2021).

“Also recorded” adds a separate entry of the source. Read-outs that look alike come from different tables or passages of the source. Where only a bound is given, the exact number is not on record here.

For test [1], the system named is HA-tagged A3G and GFP-tagged Vif or ΔVif in 293FT cells. Description: Immunoblot of A3G and Vif levels in transfected 293FT cells. Conditions: 16 h. A general note: A western blot detects proteins with antibodies after separation by electrophoresis.
Test [2] has as its system Vif-A3G-HSP90-Cul5-CBF-β E3 ligase complex. The experiment in a line: Immunoprecipitation of IMA82-interacting proteins / E3 ligase complex. The test is classed as cell-based. Here is the method:
Cells were washed twice with PBS and lysed in IP lysis buffer (Thermo) or in a buffer composed of 50 mM Tris-HCl (pH 7.2), 150 mM NaCl, 1% NP-40, 10% glycerol, and protease inhibitor cocktail. Cell lysates ([…]) were incubated with 5 μl of rat anti-HA (Roche), rabbit anti-GFP (Cell Signaling), mouse anti-Hsp90 (Millipore), or rabbit anti-Cul5 (Sigma) plus 30 μl of protein A or G DYNABEADS® (Invitrogen) and rotated at RT for 2 h. The beads were washed three times with PBS containing 0.05% Tween 20. Each lysate was immunoprecipitated in triplicate and the beads were combined. Immune complexes were eluted by boiling in 5×SDS sample buffer. The proteins were separated by SDS-PAGE and analyzed by immunoblotting with antibodies to HA (A3G), GFP (Vif), Hsp90, Cul5, and CBF-β, as described above.

The next test concerns HSP90. The experiment in a line: ViTAP (Vif inhibitor Target Affinity Purification): streptavidin affinity purification of compound-bound proteins. It counts as binding.
Test [3] concerns HSP90-A3G interaction (GST-Hsp90, recombinant human A3G). Description: In vitro binding of purified GST-HSP90 and recombinant A3G. Conditions: purified proteins, 50 μM in 1% DMSO.
Test [4] has as its system A3G and Vif levels in HSP90 or Cul5 knockdown cells.
Test [5] shares this test system. Description: Knockdown of Hsp90 and Cul5 followed by IMA82 treatment, immunoblot.
In test [6] the test system is polyubiquitination of A3G and Vif. Description: Ubiquitination assay in 293FT cells. The test is classed as cell-based. The following applies: 293FT cells expressing HA-A3G and GFP-Vif, 10 μM, ALLN. Here is the method: Cells were incubated with or without 10 μM of IMA82, IMD55, or IMD64 for 16 h, and then with or without 10 μM of the calpain inhibitor ALLN for 4 h. The cells were washed once with PBS and lysed. Samples of 200 μg protein were immunoprecipitated by the addition of rat anti-HA (Roche) or mouse anti-GFP (Wako) antibodies (7 μg) and 50 μl protein G DYNABEADS® (Invitrogen) and rotated at RT for 2 h. The beads were washed three times with PBS containing 0.05% Tween 20 and boiled in 5×SDS sample buffer. The denatured proteins were resolved and electroblotted onto PVDF membranes. The membranes were probed with rabbit anti-ubiquitin, rabbit anti-HA, or rabbit anti-GFP antibodies, as described above.

The test system of test [7] is A3G, Vif, p24, HSP90 in HIV-1LAI-infected H9 and MT4 cells. The experiment in a line: Protein analysis (immunoblot) of HIV-1 infected H9 and MT4 cells. The test is classed as cell-based. The following applies: for HIV-1 p24 levels: 72 h. As to the method:
Non-permissive (H9) and permissive (MT4) cells were treated with 1% DMSO, IMA82, or 17-DMAG overnight and then infected with HIV-1LAI for 5 h. Cells were washed three times with PBS and cultured in medium for 72 h in the presence of the same concentrations of DMSO, IMA82, or 17-DMAG. Total cell lysates were prepared with M-PER buffer containing 0.5% Triton X-100, 150 mM NaCl, 5 mM EDTA, and protease inhibitor cocktail. Protein concentrations were determined with the DC protein assay kit (Bio-Rad). Immunoblotting was performed as described above.

Test [8] has as its system wild-type HIV-1 (HIV-1LAI) in H9 cells (non-permissive). The experiment in a line: microbe, parasite or virus in culture. It counts as cell-based.
Test [9] relates to wild-type HIV-1 (HIV-1LAI) in MT-4 cells (permissive). The following applies: 100 μM; cited from earlier work.
Test [10] has the same test system. Description: Antiviral activity assay: wild-type HIV-1 in permissive MT4 cells, reverse transcriptase activity in culture supernatants. The test is classed as cell-based. Conditions: wild-type HIV-1, permissive MT4 cells, read-out: Antiviral activity (IC50 μM) MT4 cells.
The test system of a further test is HIV-1 in CEM cells. Conditions: CEM cells (non-permissive); cited from earlier work.
In test [11] the test system is APOBEC3G, Vif and cellular Hsp90 substrates (AKT, HER2). The experiment in a line: Western blot of viral and cellular proteins in 293T cells co-transfected with HIV-1 (pLAI2) and HA-tagged APOBEC3G. The test is classed as cell-based. Conditions: 50 μM, 24 h. As to the method:
FIG. 13. […] 293T cells were co-transfected with HIV-1 (pLAI2) and HA-tagged APOBEC3G vectors and cultured for 24 h in the presence (+) or absence (−) of 50 μM RN-18. Cell lysates were collected and used for Western blot analysis with antibodies against the viral and cellular proteins indicated. Levels of cellular GAPDH were used as a loading control.
Both RN-18 and 17-AAG interact with HSP90 in Cul5 mediated E3 ligase complex. […] Cell lysates were prepared and various viral and cellular protein levels were analyzed by immunoblotting (FIG. 13). Levels of cellular GAPDH were used as loading controls.

The subject of test [12] is wild-type HIV-1 (HIV-1LAI) in H9 cells (non-permissive). The following applies: earlier finding on RN-18; cited from earlier work.

Take `COc1cc(C(=O)NCCOCCOCCOCCNC(=O)CCCCC2SCC3NC(=O)NC32)ccc1NC(=O)c1ccc(Sc2ccc([N+](=O)[O-])cc2)cc1Cl` (centres unmarked) [IMA82, 2-chloro-N-(2-methoxy-4-((13-oxo-17-(2-oxohexahydro-1H-thieno[3,4-d]imidazol-4-yl)-3,6,9-trioxa-12-azaheptadecyl)carbamoyl)phenyl)-4-((4-nitrophenyl)thio)benzamide]: the A3G expression result in test [1] (293FT cells co-expressing HA-A3G and Vif or ΔVif) is “dose-dependently restored A3G expression; also recorded: enhances APOBEC3G expression”. Besides, the “Vif expression / degradation” value in test [1] (293FT cells co-expressing HA-A3G and Vif) is reported as “induces Cul5-mediated degradation of Vif; also recorded: enhanced Vif degradation; also recorded: reduces Vif expression”. Further, in [1] (transfected 293FT cells), the CBF-β levels result is “no effect on levels of CBF-β” and the HSP90 expression result was “did not significantly affect expression of HSP90 protein”. The “HSP90-A3G interaction, FLAG-HSP90 affinity purification” value in test [2] (293FT cells transfected with FLAG-HSP90 and HA-A3G, 16 h) was “inhibited interactions of HSP90 and A3G”. Further, the “A3G association with the immunoprecipitated E3 ligase complexes” value in test [2] (293FT-A3G-Vif and 293FT-A3G-ΔVif cells, 10 μM) is reported as “prevents APOBEC3G association; also recorded: not present”. In addition, the “co-purification of HSP90 (90 kDa protein) with the compound” value with HSP90 (transfected 293FT cells, streptavidin affinity purification) is “HSP90 is targeted; also recorded: purified a specific 90 kDa protein; also recorded: co-purified with IMA82; also recorded: specifically interacts with HSP90”. In addition, the “A3G binding to GST-HSP90” value in test [3] is reported as “block APOBEC3G association; also recorded: inhibited A3G binding to GST-HSP90”. In addition, in [4], the “A3G or Vif levels” value is “no effect”. For the same compound, in test [5] (Cul5-depleted 293FT-A3G-Vif cells), the “A3G or Vif levels” value is “no further effect”. In test [5] (control siRNA (siNT) 293FT-A3G-Vif cells), the A3G levels result is “rescue of A3G levels”. Besides, in [6], the A3G ubiquitination result was “not observed; also recorded: reduced” and the Vif ubiquitination result is “ubiquitinated; also recorded: increased”. Besides, in test [7] (HIV-1-infected H9 cells), the A3G levels entry was “restored A3G levels” and the Vif levels entry is reported as “decreased Vif levels”. In test [7] (HIV-1LAI-infected H9 cells), the “HIV-1 p24 levels” value is on record as “reduced”. Also, the “HIV-1 p24 levels” value in test [7] (HIV-1LAI-infected MT4 cells) was “not MT4 cells”. Also, in [8] (H9 cells, HIV-1LAI, up to 50 μM, 15 days), the “viral replication (reverse transcriptase activity in supernatants)” value was “dose-dependently inhibited viral replication”.
By IC50 is commonly meant the midpoint of a concentration-inhibition curve. Turning to `COc1ccccc1NC(=O)c1ccccc1Sc1ccc([N+](=O)[O-])cc1` [RN-18, N-(2-methoxyphenyl)-2-((4-nitrophenyl)thio)benzamide], the “activity in MT4 cell line” value in test [9] was “does not show any activity; also recorded: does not inhibit viral infectivity”. The concentration for half-maximal inhibition (IC50) in test [10] (Human immunodeficiency virus 1, MT4, Table 1) is > 50 µM; in test [10] (Human immunodeficiency virus 1, MT4, Table 3), > 50 µM; in the test on HIV-1 in CEM cells, 4.5 µM; in test [8] (Human immunodeficiency virus 1, H9, read-out: Antiviral activity (IC50 μM) H9 cells, Table 1, wild-type HIV-1, non-permissive H9 cells), 6 µM; in test [8] (Human immunodeficiency virus 1, H9, read-out: Antiviral activity (IC50 μM) H9 cells, Table 3, wild-type HIV-1, non-permissive H9 cells), 6 µM; in test [8] (Human immunodeficiency virus 1, H9, read-out: IC50, anti-HIV-1 activity, non-permissive H9 cells), 6 µM. Further, the IC50 in [12] was 6 µM. In addition, in the test with HSP90 (competitive binding, 0-30 μM competitor, 293FT cells), the “inhibition of IMA82 (25 μM) binding to FLAG-tagged HSP90” value is “dose-dependently inhibited”. Moreover, the “levels of cellular Hsp90 substrates (AKT and HER2)” value in test [11] is “no effect on AKT and HER2 levels; also recorded: does not affect the levels of cellular Hsp90 substrates”. In test [11] (HIV-1 (pLAI2) and HA-A3G), the A3G level result is listed as “restored A3G; also recorded: specifically restores APOBEC3G”. In addition, in test [11] (HIV-1 (pLAI2) and HA-A3G), the Vif level result was “enhanced degradation of Vif”. The “viral replication (reverse transcriptase activity)” value is given as “no effect” in [8] (HSP90 knockdown H9 cells, 15 days) and “inhibited viral replication” in test [8] (shNT control H9 cells, 15 days).
